Laboratory results: patent US20240408085A1, “COMPOUND FOR DEGRADATION OF BCL-2 FAMILY PROTEINS AND MEDICAL APPLICATION THEREOF” (XIZANG HAISCO PHARMACEUTICAL CO., LTD., priority 2021, published 2024)

Test system: MOLT-4 cells
Test: Cell proliferation activity in MOLT-4 cells (72 h, cell viability luminescence)
Assay type: cell-based, human
Settings: Homo sapiens, read-out: IC50 for the inhibition of MOLT-4 cell proliferation
Procedure, shortened: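 Human acute lymphoblastic leukemia cells were seeded at 5×10^3 cells/well in RPMI-1640 with 10% FBS. They were treated with serially varied compound concentrations for 72 h at 37° C., 5% CO2. A luminescent viability reagent was used for read-out. IC50 was derived relative to vehicle control; maximum inhibition was the inhibition rate at the highest concentration.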

| IC50 | SMILES |
| --- | --- |
| < 500 nM | Cc1ncsc1-c1ccc([C@H](C)NC(=O)[C@@H]2C[C@@H](O)CN2C(=O)[C@@H](NC(=O)CCCCCC(=O)N2C[C@H]3CN(CC[C@H](CSc4ccccc4)Nc4ccc(S(=O)(=O)NC(=O)c5ccc(N6CCN(CC7=C(c8ccc(Cl)cc8)CCCCC7)CC6)cc5)cc4S(=O)(=O)C(F)(F)F)C[C@H]3C2)C(C)(C)C)cc1 [Compound 41, cis-(2S,4R)-1-((S)-2-(7-(5-((R)-3-((4-(N-(4-(4-((2-(4-chlorophenyl)cyclohept-1-en-1-yl)methyl)piperazin-1-yl)benzoyl)sulfamoyl)-2-((trifluoromethyl)sulfonyl)phenyl)amino)-4-(phenylthio)butyl)hexahydropyrrolo[3,4-c]pyrrol-2(1H)-yl)-7-oxoheptanamido)-3,3-dimethylbutanoyl)-4-hydroxy-N—((S)-1-(4-(4-methylthiazol-5-yl)phenyl)ethyl)pyrrolidine-2-carboxamide] |
| < 500 nM | Cc1ncsc1-c1ccc([C@H](C)NC(=O)[C@@H]2C[C@@H](O)CN2C(=O)[C@@H](NC(=O)CCCCCCC(=O)N2C[C@H]3CN(CC[C@H](CSc4ccccc4)Nc4ccc(S(=O)(=O)NC(=O)c5ccc(N6CCN(CC7=C(c8ccc(Cl)cc8)CCCCC7)CC6)cc5)cc4S(=O)(=O)C(F)(F)F)C[C@H]3C2)C(C)(C)C)cc1 [Compound 42, cis-(2S,4R)-1-((S)-2-(8-(5-((R)-3-((4-(N-(4-(4-((2-(4-chlorophenyl)cyclohept-1-en-1-yl)methyl)piperazin-1-yl)benzoyl)sulfamoyl)-2-((trifluoromethyl)sulfonyl)phenyl)amino)-4-(phenylthio)butyl)hexahydropyrrolo[3,4-c]pyrrol-2(1H)-yl)-8-oxooctanamido)-3,3-dimethylbutanoyl)-4-hydroxy-N—((S)-1-(4-(4-methylthiazol-5-yl)phenyl)ethyl)pyrrolidine-2-carboxamide] |
| < 500 nM | Cc1ncsc1-c1ccc([C@H](C)NC(=O)[C@@H]2C[C@@H](O)CN2C(=O)[C@@H](NC(=O)CCCCCC(=O)N2CCN(CC[C@H](CSc3ccccc3)Nc3ccc(S(=O)(=O)NC(=O)c4ccc(N5CCN(C/C6=C(\c7ccc(Cl)cc7)CCCCCC6)CC5)cc4)cc3S(=O)(=O)C(F)(F)F)CC2)C(C)(C)C)cc1 [Compound 43, (2S,4R)-1-((S)-2-(7-(4-((R)-3-((4-(N-(4-(4-((2-(4-chlorophenyl)cyclooct-1-en-1-yl)methyl)piperazin-1-yl)benzoyl)sulfamoyl)-2-((trifluoromethyl)sulfonyl)phenyl)amino)-4-(phenylthio)butyl)piperazin-1-yl)-7-oxoheptanamido)-3,3-dimethylbutanoyl)-4-hydroxy-N—((S)-1-(4-(4-methylthiazol-5-yl)phenyl)ethyl)pyrrolidine-2-carboxamide] |

Continued, compound first:

| SMILES | IC50 |
| --- | --- |
| O=C1CCC(N2C(=O)c3ccc(N4CC(CN5CCN(CC[C@H](CSc6ccccc6)Nc6ccc(S(=O)(=O)NC(=O)c7ccc(N8CCN(CC9=C(c%10ccc(Cl)cc%10)CCCCC9)CC8)cc7)cc6S(=O)(=O)C(F)(F)F)CC5)C4)cc3C2=O)C(=O)N1 (stereo partly drawn) [Compound 44, 4-(4-((2-(4-chlorophenyl)cyclohept-1-en-1-yl)methyl)piperazin-1-yl)-N-((4-(((2R)-4-(4-((1-(2-(2,6-dioxopiperidin-3-yl)-1,3-dioxoisoindolin-5-yl)azetidin-3-yl)methyl)piperazin-1-yl)-1-(phenylthio)butan-2-yl)amino)-3-((trifluoromethyl)sulfonyl)phenyl)sulfonyl)benzamide] | < 500 nM |
| O=C1CCC(N2C(=O)c3ccc(N4CCC(CN5CCN(CC[C@H](CSc6ccccc6)Nc6ccc(S(=O)(=O)NC(=O)c7ccc(N8CCN(CC9=C(c%10ccc(Cl)cc%10)CCCCC9)CC8)cc7)cc6S(=O)(=O)C(F)(F)F)CC5)CC4)cc3C2=O)C(=O)N1 (stereo partly drawn) [Compound 45, 4-(4-((2-(4-chlorophenyl)cyclohept-1-en-1-yl)methyl)piperazin-1-yl)-N-((4-(((2R)-4-(4-((1-(2-(2,6-dioxopiperidin-3-yl)-1,3-dioxoisoindolin-5-yl)piperidin-4-yl)methyl)piperazin-1-yl)-1-(phenylthio)butan-2-yl)amino)-3-((trifluoromethyl)sulfonyl)phenyl)sulfonyl)benzamide] | < 500 nM |
| Cc1ncsc1-c1ccc([C@H](C)NC(=O)[C@@H]2C[C@@H](O)CN2C(=O)[C@@H](NC(=O)CCCCCC(=O)N2CCN(CC[C@H](CSc3ccccc3)Nc3ccc(S(=O)(=O)NC(=O)c4ccc(N5CCN(CC6=C(c7ccc(C#N)cc7)CCC(C)(C)C6)CC5)cc4)cc3S(=O)(=O)C(F)(F)F)CC2)C(C)(C)C)cc1 [Trifluoroacetate of compound 4, (2S,4R)-1-((S)-2-(7-(4-((R)-3-((4-(N-(4-(4-((4′-cyano-4,4-dimethyl-3,4,5,6-tetrahydro-[1,1′-biphenyl]-2-yl)methyl)piperazin-1-yl)benzoyl)sulfamoyl)-2-((trifluoromethyl)sulfonyl)phenyl)amino)-4-(phenylthio)butyl)piperazin-1-yl)-7-oxoheptanamido)-3,3-dimethylbutanoyl)-4-hydroxy-N—((S)-1-(4-(4-methylthiazol-5-yl)phenyl)ethyl)pyrrolidine-2-carboxamide] | < 500 nM |
| Cc1ncsc1-c1ccc([C@H](C)NC(=O)[C@@H]2C[C@@H](O)CN2C(=O)[C@@H](NC(=O)CCCCCC(=O)N2CCN(CC[C@H](CSc3ccccc3)Nc3ccc(S(=O)(=O)NC(=O)c4ccc(N5CCN(CC6=C(c7ccc(Cl)cc7)CCCCC6)CC5)cc4)cc3S(=O)(=O)C(F)(F)F)CC2)C(C)(C)C)cc1 [Trifluoroacetate of compound 6, (2S,4R)-1-((S)-2-(7-(4-((R)-3-((4-(N-(4-(4-((2-(4-chlorophenyl)cyclohept-1-en-1-yl)methyl)piperazin-1-yl)benzoyl)sulfamoyl)-2-((trifluoromethyl)sulfonyl)phenyl)amino)-4-(phenylthio)butyl)piperazin-1-yl)-7-oxoheptanamido)-3,3-dimethylbutanoyl)-4-hydroxy-N—((S)-1-(4-(4-methylthiazol-5-yl)phenyl)ethyl)pyrrolidine-2-carboxamide] | < 500 nM |
| Cc1ncsc1-c1ccc([C@H](C)NC(=O)[C@@H]2C[C@@H](O)CN2C(=O)[C@@H](NC(=O)CCCCCC(=O)N2CCC3(CC2)CN(CC[C@H](CSc2ccccc2)Nc2ccc(S(=O)(=O)NC(=O)c4ccc(N5CCN(CC6=C(c7ccc(Cl)cc7)CCC(C)(C)C6)CC5)cc4)cc2S(=O)(=O)C(F)(F)F)C3)C(C)(C)C)cc1 [Trifluoroacetate of compound 9, (2S,4R)-1-((S)-2-(7-(2-((R)-3-((4-(N-(4-(4-((4′-chloro-4,4-dimethyl-3,4,5,6-tetrahydro-[1,1′-biphenyl]-2-yl)methyl)piperazin-1-yl)benzoyl)sulfamoyl)-2-((trifluoromethyl)sulfonyl)phenyl)amino)-4-(phenylthio)butyl)-2,7-diazaspiro[3.5]nonan-7-yl)-7-oxoheptanamido)-3,3-dimethylbutanoyl)-4-hydroxy-N—((S)-1-(4-(4-methylthiazol-5-yl)phenyl)ethyl)pyrrolidine-2-carboxamide] | < 500 nM |
